The values below come from patent US12421207B2 (CMG Pharmaceutical Co., Ltd., priority 2022, dated 2025).

Molecules are shown by their SMILES. Like-named read-outs stand apart in the source and are kept apart here.

One assay relates to HCC827/ER cells. Kind of assay: Cell viability assay (CellTiter-Glo 2.0), erlotinib-resistant HCC827/ER cells. The format is cell-based, human. The following applies: Homo sapiens, HCC827ER, read-out: Relative cell viability. An excerpt: (§1) To explore c-MET and AXL mechanisms of EGFR TKI resistance, resistant cells of the EGFR TKI hypersensitive EGFR exon 19 mutant NSCLC cell line, HCC827 and PC9 were generated by exposing these cells to increasing concentrations of EGFR TKI for over 3 months.
(§2) Gefitinib-resistant cells were referred to as HCC827/GR. […] Osimertinib-resistant cells were referred to as HCC827/OR.

A further assay relates to HCC827/GR cells. In words: Cell viability assay (CellTiter-Glo 2.0), gefitinib-resistant HCC827/GR cells. The format is cell-based, human. As to conditions: Homo sapiens, read-out: Relative cell viability, IC50 HCC827GR.
Text: as §1
The human cell line HCC827 was purchased from the American Type Culture Collection (Manassas, VA), and the PC9 cell line was obtained from RIKEN Cell Bank (Ibaraki, Japan). […] Gefitinib-resistant cells were referred to as HCC827/GR. […] Osimertinib-resistant cells were referred to as HCC827/OR.
(§3) Cell viability assays were carried out by plating 1,000 cells per well of HCC827 or PC9 resistant cells, respectively, into white transparent-bottom 384-well plates. The cells were treated with each TKI across a 10-dose range from 1 nM to 10,000 nM. After 72 h of drug treatment, cell viability was measured using the CellTiter-Glo 2.0 assay (Promega, Madison, WI).
as §3
For orientation: ATP-based viability assays read luminescence as a measure of living cells.

In a further assay the test system is HCC827/OR cells. In words: Cell viability assay (CellTiter-Glo 2.0), osimertinib-resistant HCC827/OR cells. As to conditions: Homo sapiens, HCC827, 72 h drug treatment, read-out: Relative cell viability, IC50 HCC827OR. The format is cell-based, human.
Text: as §1, §2

In a further assay the test system is PC9/ER cells. In words: Cell viability assay (CellTiter-Glo 2.0), erlotinib-resistant PC9/ER cells. The format is cell-based. As to conditions: Homo sapiens, PC-9/ER, 72 h drug treatment, read-out: Relative cell viability, IC50 PC9ER.
Text: as §1, §2

The mark [1] stands for this setting: Table 2, 72 h drug treatment, EGFR TKI resistant cells, combination with EGFR TKI.
[2] abbreviates: HCC827, Table 2, 72 h drug treatment, EGFR TKI resistant cells, combination with EGFR TKI.
Where [3] appears, read: Table 2, EGFR TKI resistant cells, combination with EGFR TKI.
Where [4] appears, read: Table 4, 72 h drug treatment, combinations of EGFR TKIs and inhibitor of Formula (I).
Setting [5] is: HCC827, Table 4, 72 h drug treatment, combinations of EGFR TKIs and inhibitor of Formula (I).
Where [6] appears, read: Table 4, combinations of EGFR TKIs and inhibitor of Formula (I).

Regarding `CC(C)n1cc(C(=O)Nc2ccc(Oc3ccnc(N)c3-c3cnn(C)c3)c(F)c2)c(=O)n(-c2ccc(F)cc2)c1=O` [Example 7, N-(4-(2-amino-3-(1-methyl-1H-pyrazol-4-yl)pyridin-4-yloxy)-3-fluoropehynl)-1-isopropyl-2,4-dioxo-1,2,3,4-tetrahydropyrimidine-5-carboxamide], the IC50 in the assay with HCC827/ER cells (setting [1]) is less than 10 nM; in the assay with HCC827/GR cells (setting [2]), less than 10 nM; in the assay on HCC827/OR cells (setting [3]), less than 10 nM; in the assay with PC9/ER cells (setting [3]) it was less than 1000 nM.
Consider `CN(C)C(=O)Cn1cc(C(=O)Nc2ccc(Oc3ccnc(N)c3C#CC(C)(C)N3CCNCC3)c(F)c2)c(=O)n(-c2ccc(F)cc2)c1=O` [Example 35, N-(4-((2-amino-3-(3-methyl-3-(piperazin-1-yl)but-1-yn-1-yl)pyridin-4-yl)oxy)-3-fluorophenyl)-1-(2-(dimethylamino)-2-oxoethyl)-3-(4-fluorophenyl)-2,4-dioxo-1,2,3,4-tetrahydropyrimidine-5-carboxamide], for which the IC50 is less than 10000 nM in the assay on HCC827/ER cells (setting [4]), greater than 10000 nM in the assay on HCC827/GR cells (setting [5]), less than 10000 nM in the assay with HCC827/OR cells (setting [6]) and greater than 10000 nM in the assay with PC9/ER cells (setting [6]).
Take `CC(C)(C#Cc1c(Oc2ccc(NC(=O)c3c[nH]c(=O)n(-c4ccc(F)cc4)c3=O)cc2F)ccnc1N)N1CCOCC1` [Example 50, N-(4-(2-amino-3-(3-methyl-3-morpholinobut-1-ynyl)pyridin-4-yloxy)-3-fluorophenyl)-3-(4-fluorophenyl)-2,4-dioxo-1,2,3,4-tetrahydropyrimidine-5-carboxamide]: the IC50 with HCC827/ER cells (setting [4]) was less than 100 nM; in the assay on HCC827/GR cells (setting [5]), less than 1000 nM; with HCC827/OR cells (setting [6]), less than 100 nM; in the assay with PC9/ER cells (setting [6]), less than 100 nM.
Turning to `CC(C)n1cc(C(=O)Nc2ccc(Oc3ccnc(N)c3C#CC(C)(C)N3CCNCC3)c(F)c2)c(=O)n(-c2ccc(F)cc2)c1=O` [Example 19, N-(4-(2-amino-3-(3-methyl-3-(piperazin-1-yl)but-1-ynyl)pyridin-4-yloxy)-3-fluorophenyl)-3-(4-fluorophenyl)-1-isopropyl-2,4-dioxo-1,2,3,4-tetrahydropyridmidine-5-carboxamide], the IC50 is less than 10 nM in the assay on HCC827/ER cells (setting [1]), less than 100 nM with HCC827/GR cells (setting [2]), less than 100 nM in the assay with HCC827/OR cells (setting [3]) and less than 100 nM with PC9/ER cells (setting [3]).
Regarding `CC(C)N1CCC(CC#Cc2c(Oc3ccc(NC(=O)c4cn(C(C)C)c(=O)n(-c5ccc(F)cc5)c4=O)cc3F)ccnc2N)CC1` [Example 29, N-(4-(2-amino-3-(3-(1-isopropylpiperidin-4-yl)prop-1-ynyl)pyridin-4-yloxy)-3-fluorophenyl)-3-(4-fluorophenyl)-1-isopropyl-2,4-dioxo-1,2,3,4-tetrahydropyrimidine-5-carboxmide], the IC50 in the assay on HCC827/ER cells (setting [1]), in the assay with HCC827/GR cells (setting [2]), with HCC827/OR cells (setting [3]) and in the assay with PC9/ER cells (setting [3]) was less than 10 nM throughout.
With `Cc1noc(C)c1-c1c(Oc2ccc(NC(=O)c3cn(C(C)C)c(=O)n(-c4ccc(F)cc4)c3=O)cc2F)ccnc1N` [Example 11], the IC50 in the assay with HCC827/ER cells (setting [1]), with HCC827/GR cells (setting [2]), in the assay with HCC827/OR cells (setting [3]) and in the assay on PC9/ER cells (setting [3]) was less than 10000 nM in each case.
Consider `CC(C)n1cc(C(=O)Nc2ccc(Oc3ccnc(N)c3Cl)c(F)c2)c(=O)n(-c2ccc(F)cc2)c1=O` [Example 6, N-(4-(2-amino-3-chloropyridin-4-yloxy)-3-fluorophenyl)-3-(4-fluorophenyl)-1-isopropyl-2,4-dioxo-1,2,3,4-tetrahydropyrimidine-5-carboxamide], for which, in the assay with HCC827/GR cells (HCC827, 72 h), the IC50 is less than 100 nM.
In the case of `COCCN1CCC(CC#Cc2c(Oc3ccc(NC(=O)c4cn(C(C)C)c(=O)n(-c5ccc(F)cc5)c4=O)cc3F)ccnc2N)CC1` [Example 28, N-(4-(2-amino-3-(3-(1-(2-methoxyethyl)piperidin-4-yl)prop-1-ynyl)pyridin-4-yloxy)-3-fluorophenyl)-3-(4-fluorophenyl)-1-isopropyl-2,4-dioxo-1,2,3,4-tetrahydropyrimidine-5-carboxamide], the IC50 in the assay on HCC827/ER cells (setting [1]), in the assay on HCC827/GR cells (setting [2]), in the assay with HCC827/OR cells (setting [3]) and with PC9/ER cells (setting [3]) was less than 10 nM each time.
Take `CN1CCN(C(C)(C)C#Cc2c(Oc3ccc(NC(=O)c4cn(C5CCOCC5)c(=O)n(-c5ccc(F)cc5)c4=O)cc3F)ccnc2N)CC1` [Example 57, N-(4-(2-amino-3-(3-methyl-3-(4-methylpiperazin-1-yl)but-1-ynyl)pyridin-4-yloxy)-3-fluorophenyl)-3-(4-fluorophenyl)-2,4-dioxo-1-(tetrahydro-2H-pyran-4-yl)-1,2,3,4-tetrahydropyrimidine-5-carboxamide]: the IC50 with HCC827/ER cells (setting [4]) is less than 100 nM; in the assay with HCC827/GR cells (setting [5]) it was less than 100 nM; in the assay with HCC827/OR cells (setting [6]), less than 1000 nM; in the assay with PC9/ER cells (setting [6]), less than 1000 nM.
As for `COCCN1CCC(C#Cc2c(Oc3ccc(NC(=O)c4cn(C(C)C)c(=O)n(-c5ccc(F)cc5)c4=O)cc3F)ccnc2N)CC1` [Example 16], the IC50 in the assay with HCC827/ER cells (setting [1]), with HCC827/GR cells (setting [2]), with HCC827/OR cells (setting [3]) and in the assay with PC9/ER cells (setting [3]) was less than 10 nM throughout.
`Cn1nc(C(=O)Nc2ccc(Oc3ccnc(N)c3C#CC(C)(C)N3CCOCC3)c(F)c2)c(=O)n(-c2ccc(F)cc2)c1=O` [Example 48, N-(4-(2-amino-3-(3-methyl-3-morpholinobut-1-ynyl)pyridin-4-yloxy)-3-fluorophenyl)-4-(4-fluorophenyl)-2-methyl-3,5-dioxo-2,3,4,5-tetrahydro-1,2,4-triazine-6-carboxamide]: the IC50 in the assay on HCC827/ER cells (setting [4]), in the assay on HCC827/GR cells (setting [5]), in the assay with HCC827/OR cells (setting [6]) and with PC9/ER cells (setting [6]) was less than 1000 nM throughout.
As for `COCCN1CCN(C(=O)C#Cc2c(Oc3ccc(NC(=O)c4cn(C(C)C)c(=O)n(-c5ccc(F)cc5)c4=O)cc3F)ccnc2N)CC1` [Example 2, N-(4-(2-amino-3-(3-(4-(2-methoxyethyl)piperazin-1-yl)-3-oxoprop-1-ynyl)pyridin-4-yloxy)-3-fluorophenyl)-3-(4-fluorophenyl)-1-isopropyl-2,4-dioxo-1,2,3,4-teterahydropyrimidine-5-carboxamide], the IC50 in the assay with HCC827/ER cells (setting [1]), in the assay with HCC827/GR cells (setting [2]), in the assay with HCC827/OR cells (setting [3]) and in the assay on PC9/ER cells (setting [3]) was less than 10 nM in each case.
As for `Nc1nccc(Oc2ccc(NC(=O)c3cn(C4CCOCC4)c(=O)n(-c4ccc(F)cc4)c3=O)cc2F)c1C#CCN1CCOCC1` [Example 56, N-(4-(2-amino-3-(3-morpholinoprop-1-ynyl)pyridin-4-yloxy)-3-fluorophenyl)-3-(4-fluorophenyl)-2,4-dioxo-1-(tetrahydro-2H-pyran-4-yl)-1,2,3,4-tetrahydropyrimidine-5-carboxamide], the IC50 in the assay with HCC827/ER cells (setting [4]) was less than 10 nM; in the assay on HCC827/GR cells (setting [5]), less than 100 nM; with HCC827/OR cells (setting [6]) it was less than 1000 nM; in the assay with PC9/ER cells (setting [6]), less than 1000 nM.
For `Cc1nc(Cn2cc(C(=O)Nc3ccc(Oc4ccnc(N)c4C#CC(C)(C)N4CCNCC4)c(F)c3)c(=O)n(-c3ccc(F)cc3)c2=O)cs1` [Example 41, N-(4-((2-amino-3-(3-methyl-3-(piperazin-1-yl)but-1-yn-1-yl)pyridin-4-yl)oxy)-3-fluorophenyl)-3-(4-fluorophenyl)-1-((2-methylthiazol-4-yl)methyl)-2,4-dioxo-1,2,3,4-tetrahydropyrimidine-5-carboxamide], the IC50 with HCC827/ER cells (setting [4]), in the assay with HCC827/GR cells (setting [5]), in the assay on HCC827/OR cells (setting [6]) and in the assay with PC9/ER cells (setting [6]) was less than 1000 nM each time.
Turning to `CN(C)C(=O)Cn1cc(C(=O)Nc2ccc(Oc3ccnc(N)c3C#CCN3CCOCC3)c(F)c2)c(=O)n(-c2ccc(F)cc2)c1=O` [Example 34, N-(4-((2-amino-3-(3-morpholinoprop-1-yn-1-yl)pyridin-4-yl)oxy)-3-fluorophenyl)-1-(2-(dimethylamino)-2-oxoethyl)-3-(4-fluorophenyl)-2,4-dioxo-1,2,3,4-tetrahydropyrimidine-5-carboxamide], the IC50 was less than 1000 nM in the assay on HCC827/ER cells (setting [4]), less than 1000 nM in the assay on HCC827/GR cells (setting [5]), less than 10000 nM in the assay on HCC827/OR cells (setting [6]) and less than 10000 nM with PC9/ER cells (setting [6]).
Take `COCCN1CCN(CC#Cc2c(Oc3ccc(NC(=O)c4cn(C(C)C)c(=O)n(-c5ccc(F)cc5)c4=O)cc3F)ccnc2N)CC1` [Example 18, N-(4-(2-amino-3-(3-(4-(2-methoxyethyl)piperazin-1-yl)prop-1-ylny)pyridin-4-yloxy)-3-fluorophenyl)-3-(4-fluorophenyl)-1-isopropyl-2,4-dioxo-1,2,3,4-tetrahydropyrimidine-5-carboxamide]: the IC50 is less than 10 nM with HCC827/ER cells (setting [1]), less than 100 nM in the assay on HCC827/GR cells (setting [2]), less than 10 nM in the assay on HCC827/OR cells (setting [3]) and less than 100 nM in the assay on PC9/ER cells (setting [3]).
